From PMC10485003, “Antibiotic hyper-resistance in a class I aminoacyl-tRNA synthetase with altered active site signature motif” (Nature Communications, 2023)
Where “and” joins values, the source holds several entries; their conditions need not be identical. Identical values can stand only once.

Target: T1, wt-HVGH TtIleRS2 (Thermus thermophilus, UniProt P56690)
T1 construct: hexa-histidine tag (pET28b(+)) (N); made in house; host or cells: E. coli Rosetta2 (DE3)
T1 sequence (P56690 1-1043): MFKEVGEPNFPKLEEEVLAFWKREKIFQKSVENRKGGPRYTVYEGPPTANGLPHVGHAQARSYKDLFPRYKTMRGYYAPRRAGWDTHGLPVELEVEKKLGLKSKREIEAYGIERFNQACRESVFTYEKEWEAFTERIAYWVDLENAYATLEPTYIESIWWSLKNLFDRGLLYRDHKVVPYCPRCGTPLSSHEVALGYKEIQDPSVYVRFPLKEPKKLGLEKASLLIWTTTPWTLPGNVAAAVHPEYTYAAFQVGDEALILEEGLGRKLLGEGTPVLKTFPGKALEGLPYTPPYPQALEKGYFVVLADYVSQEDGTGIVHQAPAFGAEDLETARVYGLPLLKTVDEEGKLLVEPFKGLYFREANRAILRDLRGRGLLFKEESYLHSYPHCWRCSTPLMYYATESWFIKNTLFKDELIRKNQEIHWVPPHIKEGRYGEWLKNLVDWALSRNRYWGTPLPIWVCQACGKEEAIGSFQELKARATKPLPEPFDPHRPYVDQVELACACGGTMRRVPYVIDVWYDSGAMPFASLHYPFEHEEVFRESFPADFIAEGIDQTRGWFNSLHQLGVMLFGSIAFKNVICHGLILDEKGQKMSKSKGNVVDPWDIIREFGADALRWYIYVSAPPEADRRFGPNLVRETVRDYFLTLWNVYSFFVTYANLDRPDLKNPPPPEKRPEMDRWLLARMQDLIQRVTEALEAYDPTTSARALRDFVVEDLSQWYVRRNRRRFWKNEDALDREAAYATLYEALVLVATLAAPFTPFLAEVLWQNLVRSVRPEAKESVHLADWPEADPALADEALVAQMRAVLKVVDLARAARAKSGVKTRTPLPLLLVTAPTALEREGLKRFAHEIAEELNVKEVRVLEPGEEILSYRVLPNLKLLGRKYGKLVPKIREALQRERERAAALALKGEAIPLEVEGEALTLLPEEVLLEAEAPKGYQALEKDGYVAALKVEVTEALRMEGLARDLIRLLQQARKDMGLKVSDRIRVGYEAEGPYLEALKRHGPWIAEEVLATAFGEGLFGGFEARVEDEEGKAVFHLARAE
Experiment: ATP-PPi exchange assay, mupirocin inhibition of amino acid activation
Format: biochemical
Experimental: L-Ile and ATP concentrations ranged from 1/10 KM to 10 KM values. When measuring the KI towards one of the substrates, the other was held in saturation (concentrations at least 10 KM). The aliquots of the reaction mixture (1–2.5 μl) were quenched in 2 volumes of 500 mM NaOAc pH = 4.5, 0.1% SDS, and formed ^32P-ATP was separated from the remaining ^32P-PPi by thin-layer chromatography on Polygram CEL 300 PEI UV254 TLC plates (Macherey-Nagel, cat: 801063) using 750 mM KH2PO4 pH=3.5, 4 M urea buffer. Visualization and quantification of the signals was performed using a Typhoon Phosphoimager 5 (General Electric) and accompanying ImageQuant™ TL software (SV: 10.2). The kinetic constants were determined using a global fit option of the competitive inhibition model of GraphPad Prism 6 software (SV: 6.01). All experiments were performed in triplicates. The kcat was determined by dividing the maximal velocity, VM, with the used enzyme concentration. […]
variable substrate (ATP or Ile) was varied in the range of 0.1 KM to 10 KM. The other substrate (Ile or ATP) was kept in excess at 5 to 10 KM. Data were globally fitted to the competitive inhibition model using GraphPad prism 6.01 for Windows software. The values represent the average value ± SD of three independent experiments. Source data are provided as a Source Data file.

**Q.** What does the source list for `C/C(=C\C(=O)OCCCCCCCCC(=O)O)C[C@@H]1OC[C@H](C[C@@H]2O[C@H]2[C@@H](C)[C@H](C)O)[C@@H](O)[C@H]1O` [mupirocin]?
**A.** Ki (KI (MUP)ATP, amino acid activation assay, ATP as variable substrate, average ± SD of three independent experiments): 200 ± 10 nM; Ki (KI (MUP)Ile, amino acid activation step, ATP/PPi exchange assay, Ile varied, ATP saturating, average ± SD of three independent experiments): 200 ± 10 nM; Ki (KI, single replicates, mupirocin inhibition towards Ile, GraphPad Prism output, Repl1-Repl3): 190 nM and 200 nM (3×); initial velocity vo (c(mupirocin) 0.25 μM, c(ATP) 0.5 mM): 0.00545 mM/min and 0.00625 mM/min and 0.00878 mM/min; initial velocity vo (c(mupirocin) 0.25 μM, c(ATP) 1.0 mM): 0.00989 mM/min and 0.00933 mM/min and 0.0106 mM/min; initial velocity vo (c(mupirocin) 0.25 μM, c(ATP) 2.5 mM): 0.01904 mM/min and 0.0219 mM/min and 0.02129 mM/min; initial velocity vo (c(mupirocin) 0.25 μM, c(ATP) 5.0 mM): 0.03233 mM/min and 0.03269 mM/min and 0.0316 mM/min; initial velocity vo (c(mupirocin) 0.25 μM, c(ATP) 10.0 mM): 0.04434 mM/min and 0.04682 mM/min and 0.04511 mM/min; initial velocity vo (c(mupirocin) 0.25 μM, c(ATP) 15.0 mM): 0.0472 mM/min and 0.05017 mM/min and 0.05086 mM/min; initial velocity vo (c(mupirocin) 0.25 μM, c(Ile) 5.0 μM): 0.00612 mM/min and 0.00672 mM/min and 0.00733 mM/min; initial velocity vo (c(mupirocin) 0.25 μM, c(Ile) 15.0 μM): 0.0169 mM/min and 0.01596 mM/min; initial velocity vo (c(mupirocin) 0.5 μM, c(ATP) 0.5 mM): 0.00322 mM/min and 0.00373 mM/min and 0.00334 mM/min; initial velocity vo (c(mupirocin) 0.5 μM, c(ATP) 1.0 mM): 0.00754 mM/min and 0.00751 mM/min and 0.00747 mM/min; initial velocity vo (c(mupirocin) 0.5 μM, c(ATP) 2.5 mM): 0.01415 mM/min and 0.01653 mM/min and 0.01647 mM/min; initial velocity vo (c(mupirocin) 0.5 μM, c(ATP) 5.0 mM): 0.02341 mM/min and 0.024 mM/min and 0.02727 mM/min; initial velocity vo (c(mupirocin) 0.5 μM, c(ATP) 10.0 mM): 0.03666 mM/min and 0.03855 mM/min and 0.03894 mM/min; initial velocity vo (c(mupirocin) 0.5 μM, c(ATP) 15.0 mM): 0.04188 mM/min and 0.04379 mM/min and 0.0434 mM/min; initial velocity vo (c(mupirocin) 0.5 μM, c(Ile) 5.0 μM): 0.00349 mM/min and 0.00358 mM/min and 0.00422 mM/min; initial velocity vo (c(mupirocin) 0.5 μM, c(Ile) 15.0 μM): 0.01037 mM/min and 0.01135 mM/min and 0.01134 mM/min; initial velocity vo (c(mupirocin) 1.0 μM, c(ATP) 1.0 mM): 0.00403 mM/min and 0.00377 mM/min and 0.00474 mM/min; initial velocity vo (c(mupirocin) 1.0 μM, c(ATP) 2.5 mM): 0.00961 mM/min and 0.01146 mM/min and 0.01193 mM/min; initial velocity vo (c(mupirocin) 1.0 μM, c(ATP) 5.0 mM): 0.01986 mM/min and 0.02034 mM/min and 0.01615 mM/min; initial velocity vo (c(mupirocin) 1.0 μM, c(ATP) 10.0 mM): 0.02901 mM/min and 0.02831 mM/min and 0.02535 mM/min; initial velocity vo (c(mupirocin) 1.0 μM, c(ATP) 15.0 mM): 0.03565 mM/min and 0.03315 mM/min and 0.03301 mM/min; initial velocity vo (c(mupirocin) 1.0 μM, c(Ile) 5.0 μM): 0.0018 mM/min and 0.00161 mM/min and 0.00213 mM/min; initial velocity vo (c(mupirocin) 1.0 μM, c(Ile) 15.0 μM): 0.00627 mM/min and 0.00604 mM/min and 0.00608 mM/min; initial velocity vo (c(mupirocin) 1.0 μM, c(Ile) 50.0 μM): 0.01613 mM/min and 0.01634 mM/min and 0.01627 mM/min; initial velocity vo (c(mupirocin) 2.5 μM, c(ATP) 2.5 mM): 0.00405 mM/min and 0.00296 mM/min and 0.00525 mM/min; initial velocity vo (c(mupirocin) 2.5 μM, c(ATP) 5.0 mM): 0.00797 mM/min and 0.00918 mM/min and 0.01147 mM/min; initial velocity vo (c(mupirocin) 2.5 μM, c(ATP) 10.0 mM): 0.01533 mM/min and 0.01708 mM/min and 0.0168 mM/min; initial velocity vo (c(mupirocin) 2.5 μM, c(ATP) 15.0 mM): 0.02441 mM/min and 0.0241 mM/min and 0.02037 mM/min; initial velocity vo (c(mupirocin) 5.0 μM, c(ATP) 2.5 mM): 0.00309 mM/min and 0.0024 mM/min and 0.0026 mM/min; initial velocity vo (c(mupirocin) 5.0 μM, c(ATP) 5.0 mM): 0.00527 mM/min and 0.00709 mM/min and 0.00659 mM/min; initial velocity vo (c(mupirocin) 5.0 μM, c(ATP) 10.0 mM): 0.01002 mM/min and 0.00944 mM/min and 0.01333 mM/min; initial velocity vo (c(mupirocin) 5.0 μM, c(ATP) 15.0 mM): 0.01409 mM/min and 0.01329 mM/min; initial velocity vo (c(mupirocin) 5.0 μM, c(Ile) 5.0 μM): 0.00137 mM/min and 0.00102 mM/min and 0.00071 mM/min; initial velocity vo (c(mupirocin) 5.0 μM, c(Ile) 15.0 μM): 0.00213 mM/min and 0.00316 mM/min and 0.00307 mM/min
